Assay results as given in ChEMBL document CHEMBL5465560, “Selectivity Literature for EUbOPEN Chemogenomic Library” (2024).
Blank lines part the entries; values can stand above or below the molecule they belong to.

What was measured:
[1] = target: Tyrosine-protein kinase ABL1 (Homo sapiens, UniProt P00519); settings: at 10 µM
[2] = target: Ribosomal protein S6 kinase alpha-2 (Homo sapiens) (UniProt Q15349); test: Selectivity interaction (Ambit KINOMEscan and KiNATiv profiling in Jurkat cells) EUB0000090b RPS6KA2; format: cell-based; settings: at 1 µM
[3] = target: Proto-oncogene tyrosine-protein kinase receptor Ret (Homo sapiens, UniProt P07949); test: (§1) Selectivity interaction (SelectScreen profiling (Invitrogen)) EUB0000607a RET; settings: at 2 µM
[4] = test system: Proto-oncogene tyrosine-protein kinase receptor Ret (Homo sapiens), P07949 [V804L]; test: as §1; settings: at 2 µM
[5] = test system: Proto-oncogene tyrosine-protein kinase receptor Ret (Homo sapiens), P07949 [Y791F]; test: as §1; settings: at 2 µM
[6] = target: Leukocyte tyrosine kinase receptor (Homo sapiens, UniProt P29376); test: Selectivity interaction (Kinase panel (Invitrogen)) EUB0000639a LTK; settings: at 200 nM
Focal adhesion kinase 1 = Focal adhesion kinase 1 (Homo sapiens, UniProt Q05397); test: Selectivity interaction (ActivX KiNativ screen (kinase selectivity in THP-1 cell lysates)) EUB0000639a PTK2; format: subcellular; settings: lysate, at 0.01 µM
[7] = target: T1, Mitogen-activated protein kinase kinase kinase kinase 3 (Homo sapiens) (UniProt Q8IVH8); test: Selectivity interaction (KinomeScan (DiscoverX)) EUB0000229b MAP4K3; settings: at 10 µM
T1 sequence (whole entry): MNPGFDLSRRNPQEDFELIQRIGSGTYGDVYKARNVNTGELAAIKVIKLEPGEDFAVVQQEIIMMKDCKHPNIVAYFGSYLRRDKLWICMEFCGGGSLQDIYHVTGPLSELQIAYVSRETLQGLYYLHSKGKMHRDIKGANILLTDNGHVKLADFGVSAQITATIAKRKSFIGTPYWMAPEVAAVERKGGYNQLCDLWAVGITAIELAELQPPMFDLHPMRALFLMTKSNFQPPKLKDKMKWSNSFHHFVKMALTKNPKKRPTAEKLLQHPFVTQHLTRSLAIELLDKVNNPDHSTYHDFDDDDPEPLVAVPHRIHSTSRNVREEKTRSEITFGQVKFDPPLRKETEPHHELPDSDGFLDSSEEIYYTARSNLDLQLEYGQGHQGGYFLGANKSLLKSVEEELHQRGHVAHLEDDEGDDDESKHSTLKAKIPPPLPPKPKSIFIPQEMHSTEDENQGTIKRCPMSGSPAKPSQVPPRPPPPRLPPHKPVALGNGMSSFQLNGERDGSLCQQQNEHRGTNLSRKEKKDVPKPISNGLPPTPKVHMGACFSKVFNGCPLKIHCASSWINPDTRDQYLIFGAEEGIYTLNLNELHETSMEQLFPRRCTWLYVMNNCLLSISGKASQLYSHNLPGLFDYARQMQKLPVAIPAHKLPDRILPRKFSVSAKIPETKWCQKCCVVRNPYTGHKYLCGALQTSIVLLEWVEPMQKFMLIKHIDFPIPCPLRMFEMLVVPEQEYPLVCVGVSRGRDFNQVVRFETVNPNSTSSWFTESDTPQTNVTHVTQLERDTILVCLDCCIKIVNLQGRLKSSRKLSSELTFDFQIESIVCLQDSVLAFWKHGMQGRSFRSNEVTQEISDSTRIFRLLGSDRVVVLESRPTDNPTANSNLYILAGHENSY

Aurora kinase B = Aurora kinase B (Homo sapiens, UniProt Q96GD4); test: Selectivity interaction (Kinase panel (Invitrogen, enzymatic assay)) EUB0000162b AURKB
[8] = target: T2, Cyclin-dependent kinase-like 5 (Homo sapiens) (UniProt O76039); test: Selectivity interaction (KinomeScan (DiscoverX)) EUB0000092b CDKL5; settings: at 10 µM
T2 sequence (whole entry): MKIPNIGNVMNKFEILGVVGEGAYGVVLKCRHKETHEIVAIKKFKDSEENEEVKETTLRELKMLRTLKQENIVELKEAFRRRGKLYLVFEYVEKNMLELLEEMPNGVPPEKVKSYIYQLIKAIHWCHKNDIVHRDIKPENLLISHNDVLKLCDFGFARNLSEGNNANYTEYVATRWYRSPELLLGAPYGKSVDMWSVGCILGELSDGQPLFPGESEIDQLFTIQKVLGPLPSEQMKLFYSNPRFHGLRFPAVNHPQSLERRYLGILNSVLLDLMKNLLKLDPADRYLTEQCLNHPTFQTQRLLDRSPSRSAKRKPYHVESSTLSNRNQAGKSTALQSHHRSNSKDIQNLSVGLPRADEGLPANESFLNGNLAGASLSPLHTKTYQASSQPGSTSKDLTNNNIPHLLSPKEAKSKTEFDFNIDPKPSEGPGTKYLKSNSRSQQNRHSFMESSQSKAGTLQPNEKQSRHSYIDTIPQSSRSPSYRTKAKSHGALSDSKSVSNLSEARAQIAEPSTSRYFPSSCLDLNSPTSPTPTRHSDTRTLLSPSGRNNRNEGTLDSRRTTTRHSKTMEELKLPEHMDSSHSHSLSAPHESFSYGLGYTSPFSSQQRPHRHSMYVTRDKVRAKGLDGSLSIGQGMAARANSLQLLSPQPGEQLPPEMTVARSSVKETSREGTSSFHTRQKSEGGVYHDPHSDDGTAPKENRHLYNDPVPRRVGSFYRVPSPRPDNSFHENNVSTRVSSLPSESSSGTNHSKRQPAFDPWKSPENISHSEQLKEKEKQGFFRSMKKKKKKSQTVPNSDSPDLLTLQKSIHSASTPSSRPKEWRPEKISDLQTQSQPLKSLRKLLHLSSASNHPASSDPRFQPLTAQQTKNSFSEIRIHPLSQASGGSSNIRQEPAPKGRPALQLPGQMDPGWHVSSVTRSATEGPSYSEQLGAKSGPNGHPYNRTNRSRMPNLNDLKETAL

Chain of Aurora kinase B (Q96GD4 whole entry): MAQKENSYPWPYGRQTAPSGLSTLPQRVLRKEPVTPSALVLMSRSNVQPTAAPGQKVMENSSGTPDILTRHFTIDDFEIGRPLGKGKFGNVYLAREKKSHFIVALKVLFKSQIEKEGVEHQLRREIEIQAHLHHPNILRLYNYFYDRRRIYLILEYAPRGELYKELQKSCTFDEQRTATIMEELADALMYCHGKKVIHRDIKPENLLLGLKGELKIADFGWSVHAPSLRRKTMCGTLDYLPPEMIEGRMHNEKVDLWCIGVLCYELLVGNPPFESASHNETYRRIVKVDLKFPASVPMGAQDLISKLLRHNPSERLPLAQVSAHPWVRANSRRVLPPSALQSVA
Chain of Ribosomal protein S6 kinase alpha-2 (Homo sapiens) (Q15349 whole entry): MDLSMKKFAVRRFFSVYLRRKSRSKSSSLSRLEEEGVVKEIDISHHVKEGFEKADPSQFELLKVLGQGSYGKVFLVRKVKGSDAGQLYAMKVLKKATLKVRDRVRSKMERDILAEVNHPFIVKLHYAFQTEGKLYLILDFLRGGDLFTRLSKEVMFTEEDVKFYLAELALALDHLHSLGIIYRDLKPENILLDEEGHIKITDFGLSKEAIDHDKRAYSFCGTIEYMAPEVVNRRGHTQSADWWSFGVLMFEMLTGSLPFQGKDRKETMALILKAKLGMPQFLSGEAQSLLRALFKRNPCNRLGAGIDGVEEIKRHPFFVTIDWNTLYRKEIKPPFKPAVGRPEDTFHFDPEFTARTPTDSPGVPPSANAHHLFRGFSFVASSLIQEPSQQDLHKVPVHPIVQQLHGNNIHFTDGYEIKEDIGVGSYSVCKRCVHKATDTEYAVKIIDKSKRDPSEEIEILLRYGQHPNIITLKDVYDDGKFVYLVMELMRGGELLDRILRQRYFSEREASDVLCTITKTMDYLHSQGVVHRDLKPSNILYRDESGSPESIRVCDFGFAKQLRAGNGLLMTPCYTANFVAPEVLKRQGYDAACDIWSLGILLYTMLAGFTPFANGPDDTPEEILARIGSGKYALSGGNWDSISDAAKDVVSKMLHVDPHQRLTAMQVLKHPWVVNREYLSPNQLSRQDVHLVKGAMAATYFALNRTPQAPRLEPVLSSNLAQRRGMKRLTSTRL
Chain of Leukocyte tyrosine kinase receptor (P29376 whole entry): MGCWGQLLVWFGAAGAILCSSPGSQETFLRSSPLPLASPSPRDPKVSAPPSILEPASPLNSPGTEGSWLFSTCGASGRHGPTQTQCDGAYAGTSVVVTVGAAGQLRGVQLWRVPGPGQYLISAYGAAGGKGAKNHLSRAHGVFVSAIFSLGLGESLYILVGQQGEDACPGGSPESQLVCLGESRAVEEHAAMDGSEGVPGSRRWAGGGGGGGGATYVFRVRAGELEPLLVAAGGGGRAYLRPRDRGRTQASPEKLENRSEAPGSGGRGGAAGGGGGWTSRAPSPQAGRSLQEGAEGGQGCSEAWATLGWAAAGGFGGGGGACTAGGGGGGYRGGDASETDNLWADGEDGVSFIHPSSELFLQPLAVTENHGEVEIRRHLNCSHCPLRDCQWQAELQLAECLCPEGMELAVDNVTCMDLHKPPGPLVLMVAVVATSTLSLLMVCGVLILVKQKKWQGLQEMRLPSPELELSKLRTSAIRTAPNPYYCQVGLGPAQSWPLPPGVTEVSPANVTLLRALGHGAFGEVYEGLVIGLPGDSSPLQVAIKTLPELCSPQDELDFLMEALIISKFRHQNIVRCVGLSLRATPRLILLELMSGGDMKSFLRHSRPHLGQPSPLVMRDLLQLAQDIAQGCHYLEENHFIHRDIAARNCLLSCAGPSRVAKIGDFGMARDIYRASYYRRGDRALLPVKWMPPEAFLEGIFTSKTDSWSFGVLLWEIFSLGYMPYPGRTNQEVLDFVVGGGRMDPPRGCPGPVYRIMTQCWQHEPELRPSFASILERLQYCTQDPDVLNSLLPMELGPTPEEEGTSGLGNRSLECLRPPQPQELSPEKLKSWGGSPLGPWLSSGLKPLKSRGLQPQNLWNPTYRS
Chain of Focal adhesion kinase 1 (Q05397 2-1052 limits assumed): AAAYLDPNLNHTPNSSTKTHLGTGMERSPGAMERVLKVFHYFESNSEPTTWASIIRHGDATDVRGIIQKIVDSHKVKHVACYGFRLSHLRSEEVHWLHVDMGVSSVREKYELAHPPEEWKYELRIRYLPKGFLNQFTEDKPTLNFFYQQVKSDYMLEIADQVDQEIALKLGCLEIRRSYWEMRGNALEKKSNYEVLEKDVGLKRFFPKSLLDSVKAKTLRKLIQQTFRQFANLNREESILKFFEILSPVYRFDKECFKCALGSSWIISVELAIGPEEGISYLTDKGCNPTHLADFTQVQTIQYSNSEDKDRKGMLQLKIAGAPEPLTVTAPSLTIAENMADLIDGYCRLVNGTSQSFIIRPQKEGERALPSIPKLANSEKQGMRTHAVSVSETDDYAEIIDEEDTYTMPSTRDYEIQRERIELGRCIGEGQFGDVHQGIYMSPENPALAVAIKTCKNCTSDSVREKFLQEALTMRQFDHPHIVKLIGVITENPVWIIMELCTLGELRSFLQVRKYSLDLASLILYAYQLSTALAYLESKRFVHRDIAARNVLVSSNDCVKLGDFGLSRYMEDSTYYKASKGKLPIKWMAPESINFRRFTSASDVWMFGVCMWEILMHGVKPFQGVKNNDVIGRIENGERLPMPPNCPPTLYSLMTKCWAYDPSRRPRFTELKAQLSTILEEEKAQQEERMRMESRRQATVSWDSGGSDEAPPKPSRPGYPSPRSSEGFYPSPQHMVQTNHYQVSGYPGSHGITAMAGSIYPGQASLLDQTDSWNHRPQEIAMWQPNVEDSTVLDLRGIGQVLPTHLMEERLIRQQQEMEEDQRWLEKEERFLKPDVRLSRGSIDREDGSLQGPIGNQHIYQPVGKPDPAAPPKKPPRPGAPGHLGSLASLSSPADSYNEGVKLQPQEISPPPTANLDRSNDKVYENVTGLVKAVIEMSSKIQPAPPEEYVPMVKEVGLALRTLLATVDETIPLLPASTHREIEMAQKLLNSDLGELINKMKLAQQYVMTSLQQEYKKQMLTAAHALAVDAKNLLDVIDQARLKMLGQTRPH
Chain of Tyrosine-protein kinase ABL1 (P00519 whole entry): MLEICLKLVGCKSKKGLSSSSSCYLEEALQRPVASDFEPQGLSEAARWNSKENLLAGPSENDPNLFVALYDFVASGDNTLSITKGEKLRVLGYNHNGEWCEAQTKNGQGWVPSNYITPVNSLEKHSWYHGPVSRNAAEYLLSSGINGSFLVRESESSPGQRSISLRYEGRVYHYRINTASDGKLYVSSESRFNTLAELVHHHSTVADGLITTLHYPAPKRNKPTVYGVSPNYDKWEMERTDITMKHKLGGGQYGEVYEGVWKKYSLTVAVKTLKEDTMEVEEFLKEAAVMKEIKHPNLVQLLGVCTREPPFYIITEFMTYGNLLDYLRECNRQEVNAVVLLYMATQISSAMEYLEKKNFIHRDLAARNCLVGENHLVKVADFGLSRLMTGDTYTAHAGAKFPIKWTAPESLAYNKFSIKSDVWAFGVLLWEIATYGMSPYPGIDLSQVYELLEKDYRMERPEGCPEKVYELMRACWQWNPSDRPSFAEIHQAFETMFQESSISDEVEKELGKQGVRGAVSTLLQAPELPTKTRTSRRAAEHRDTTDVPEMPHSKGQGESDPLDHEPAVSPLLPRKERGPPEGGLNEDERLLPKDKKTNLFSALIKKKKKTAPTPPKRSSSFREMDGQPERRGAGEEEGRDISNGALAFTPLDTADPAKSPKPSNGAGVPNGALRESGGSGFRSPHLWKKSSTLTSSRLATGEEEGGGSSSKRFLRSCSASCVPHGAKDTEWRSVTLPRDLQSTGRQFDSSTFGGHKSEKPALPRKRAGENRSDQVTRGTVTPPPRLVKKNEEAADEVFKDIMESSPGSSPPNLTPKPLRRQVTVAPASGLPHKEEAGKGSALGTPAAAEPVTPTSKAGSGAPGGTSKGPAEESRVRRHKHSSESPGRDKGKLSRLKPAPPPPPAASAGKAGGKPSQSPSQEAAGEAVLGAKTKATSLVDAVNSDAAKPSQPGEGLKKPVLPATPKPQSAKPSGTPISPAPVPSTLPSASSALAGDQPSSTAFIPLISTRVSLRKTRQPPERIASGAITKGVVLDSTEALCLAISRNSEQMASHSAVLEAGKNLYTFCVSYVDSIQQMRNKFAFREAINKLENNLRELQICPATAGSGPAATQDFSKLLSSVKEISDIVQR

% of control [1]: 100%
Structure (SMILES): CCN(CC)CCCCNc1ncc2cc(-c3cc(OC)cc(OC)c3)c(NC(=O)NC(C)(C)C)nc2n1

Structure (SMILES): CN(C)C/C=C/C(=O)Nc1ccc(C(=O)N2CCCC(Nc3ncc(Cl)c(-c4c[nH]c5ccccc45)n3)C2)cc1 (stereo not given)
% of control [2]: 55%

Structure (SMILES): CNC(=O)Nc1ccc(-c2nc(N3CC4CCC(C3)O4)c3cnn(C4CCC5(CC4)OCCO5)c3n2)cc1
% of inhibition [3]: 4% | % of inhibition [4]: 2% | % of inhibition [5]: 2%

% of inhibition [6]: 5.58% | % of inhibition (Focal adhesion kinase 1): -47.2%
Structure (SMILES): CC[C@@H]1[C@H](F)C(=O)N[C@@H]1COc1nccc2cc(C(N)=O)c(OC)cc12 [ZIMLOVISERTIB]

Structure (SMILES): COc1cc(N(C)c2ccnc3ccc(C(F)(F)F)cc23)cc(OC)c1OC
% binding [7]: 87%

IC50 (Aurora kinase B): 809 nM
Structure (SMILES): CN(C)C(=O)Cn1cc(-c2ccc(-c3cncc4ccccc34)cc2)cn1

Structure (SMILES): CCC(=O)N1CCN(c2ccc(-n3c(=O)ccc4cnc5ccc(-c6cnc7ccccc7c6)cc5c43)cc2C(F)(F)F)CC1
% of control [8]: 100%
